Measured values: ChEMBL document CHEMBL1128035, “Structural optimization of alkyl-substituted 2-(7-5H-[1]benzopyrano[2,3-b]pyridyl)propionic acid as anti-inflammatory agents” (Bioorg Med Chem Lett, 1995)

What was measured:
[1] = target: T1, Prostaglandin G/H synthase 1 (Ovis aries, UniProt P05979); assay: Inhibitory activity against COX-1 from ram seminal vesicles
T1 sequence (P05979 whole entry): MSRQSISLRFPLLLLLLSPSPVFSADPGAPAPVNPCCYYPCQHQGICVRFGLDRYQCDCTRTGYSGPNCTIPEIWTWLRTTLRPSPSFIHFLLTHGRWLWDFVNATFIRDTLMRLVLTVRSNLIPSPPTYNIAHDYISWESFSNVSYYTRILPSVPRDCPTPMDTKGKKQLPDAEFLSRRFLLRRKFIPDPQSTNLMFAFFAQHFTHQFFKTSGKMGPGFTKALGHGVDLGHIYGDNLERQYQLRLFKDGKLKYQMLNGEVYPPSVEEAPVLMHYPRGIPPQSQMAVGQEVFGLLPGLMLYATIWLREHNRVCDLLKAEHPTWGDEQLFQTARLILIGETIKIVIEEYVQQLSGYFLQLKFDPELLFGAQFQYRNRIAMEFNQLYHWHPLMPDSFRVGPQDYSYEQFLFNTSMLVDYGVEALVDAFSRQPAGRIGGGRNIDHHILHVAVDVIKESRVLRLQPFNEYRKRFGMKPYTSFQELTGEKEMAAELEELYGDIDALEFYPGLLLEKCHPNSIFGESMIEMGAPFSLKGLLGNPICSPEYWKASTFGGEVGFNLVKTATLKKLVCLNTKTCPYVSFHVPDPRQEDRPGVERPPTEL

[2] = Partition coefficient measured in n-octanol/ pH 7.4 phosphate buffer; format: physicochemical
[3] = target: T2, Prostaglandin G/H synthase 1 (Rattus norvegicus, UniProt Q63921); assay: Inhibitory activity against COX-1 from rat peritoneal leukocytes, measured by PGE-2 produced (enzyme immunoassay)
T2 sequence (Q63921 whole entry): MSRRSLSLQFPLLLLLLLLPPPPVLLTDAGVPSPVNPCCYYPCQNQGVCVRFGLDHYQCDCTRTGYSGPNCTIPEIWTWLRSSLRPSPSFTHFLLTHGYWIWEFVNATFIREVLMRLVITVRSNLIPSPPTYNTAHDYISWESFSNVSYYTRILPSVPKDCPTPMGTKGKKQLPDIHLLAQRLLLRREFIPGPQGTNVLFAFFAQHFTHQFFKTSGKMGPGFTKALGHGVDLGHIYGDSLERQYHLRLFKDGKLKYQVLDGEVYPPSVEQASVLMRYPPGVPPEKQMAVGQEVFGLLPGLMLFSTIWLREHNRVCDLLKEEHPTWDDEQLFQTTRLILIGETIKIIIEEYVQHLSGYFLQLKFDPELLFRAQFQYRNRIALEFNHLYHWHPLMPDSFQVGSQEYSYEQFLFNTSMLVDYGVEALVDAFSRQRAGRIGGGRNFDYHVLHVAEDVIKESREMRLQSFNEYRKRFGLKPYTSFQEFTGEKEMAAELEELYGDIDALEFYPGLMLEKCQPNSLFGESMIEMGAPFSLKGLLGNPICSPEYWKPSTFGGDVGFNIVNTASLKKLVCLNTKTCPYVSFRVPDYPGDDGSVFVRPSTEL

Row | Structure (SMILES) | IC50 [1] | logD [2] | IC50 [3]
1 | CC(C)c1ccc2c(n1)Oc1ccc(C(C)C(=O)O)cc1C2 (configuration not stated) | > 100000 nM | 0.67 | 
2 | Cc1ccnc2c1Cc1cc(C(C)C(=O)O)ccc1O2 (configuration not stated) | > 100000 nM | -0.17 | 
3 | Cc1cnc2c(c1)Cc1cc(C(C)C(=O)O)ccc1O2 (configuration not stated) | 11000 nM | 0.03 | 
4 | CCc1ccc2c(n1)Oc1ccc(C(C)C(=O)O)cc1C2 (configuration not stated) | 850 nM | 0.45 | 110 nM
5 | Cc1ccc2c(n1)Oc1ccc(C(C)C(=O)O)cc1C2 (configuration not stated) | 320 nM | -0.11 | 30 nM
6 | CCCc1ccc2c(n1)Oc1ccc(C(C)C(=O)O)cc1C2 (configuration not stated) | > 100000 nM | 1.08 | 
7 | CC(C(=O)O)c1ccc2c(c1)Cc1cccnc1O2 (configuration not stated) [PRANOPROFEN] | 3100 nM | -0.72 | 390 nM
